Measurements: patent US8101638B2, “6-substituted nicotinamide derivatives as opioid receptor antagonists” (Eli Lilly and Company, priority 2003, dated 2012)

Legend:
Format in all cases: biochemical
[1] = target: delta opioid receptor (DOR) (Homo sapiens, UniProt P41143); assay: SPA-based GTP-γ-S binding assay, antagonist mode, delta opioid receptor; conditions: antagonist assay against agonist DPDPE 30 nM; membranes; Kb by Cheng-Prusoff equation
Procedure: (§1) A scintillation proximity assay (SPA) based GTP-γ-S^35 assay format was developed based on previous opioid (Emmerson et al., J. Pharm Exp Ther 278, 1121, 1996; Horng et al., Society for Neuroscience Abstracts, 434.6, 2000) and muscarinic (DeLapp et al., JPET 289, 946, 1999) assay formats. Membranes were resuspended in 20 mM HEPES, 100 mM NaCl, 5 mM MgCl2, 1 mM DTT, and 1 mM EDTA. […] of GTP-γ-[35S], compound, membrane suspension (20 microgram/well), and wheat germ agglutinin coated SPA beads (1 mg/well) were added to clear bottom 96 well assay plates. GDP ([…]) was added to the membrane solution prior to addition to the assay plates. Plates were sealed and incubated for four hours at room temperature then placed in a refrigerator overnight to allow the beads to settle. Signal stability at 4° C. was determined to be >60 hours. Plates were warmed to room temperature and counted in a Wallac Microbeta scintillation counter. For antagonist assays, specific agonists were added at the following concentrations: (MOR) DAMGO 1 micromolar, (DOR) DPDPE 30 nM, (KOR) U69593 300 nM. Kb's were determined by Cheng-Prusoff equation (see Cheng and Prusoff, Biochem. Pharmacol. 22, 3099, 1973).

[2] = target: kappa opioid receptor (KOR) (Homo sapiens, UniProt P41145); assay: SPA-based GTP-γ-S binding assay, antagonist mode, kappa opioid receptor; conditions: antagonist assay against agonist U69593 300 nM; membranes; Kb by Cheng-Prusoff equation
kappa opioid receptor (KOR), sequence (P41145 whole entry): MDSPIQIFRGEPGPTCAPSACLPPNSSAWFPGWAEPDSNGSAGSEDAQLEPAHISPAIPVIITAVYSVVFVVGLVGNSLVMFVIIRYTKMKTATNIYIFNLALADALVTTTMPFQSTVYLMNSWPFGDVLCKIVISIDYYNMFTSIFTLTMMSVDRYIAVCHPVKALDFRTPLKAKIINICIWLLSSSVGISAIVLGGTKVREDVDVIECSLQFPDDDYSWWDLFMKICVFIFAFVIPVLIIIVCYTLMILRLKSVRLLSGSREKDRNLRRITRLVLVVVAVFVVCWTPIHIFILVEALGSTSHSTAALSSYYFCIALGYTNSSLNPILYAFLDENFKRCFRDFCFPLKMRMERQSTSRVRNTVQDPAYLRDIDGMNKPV
Procedure: as §1

[3] = target: mu opioid receptor (MOR) (Homo sapiens, UniProt P35372); assay: SPA-based GTP-γ-S binding assay, antagonist mode, mu opioid receptor; conditions: antagonist assay against agonist DAMGO 1 micromolar; membranes; Kb by Cheng-Prusoff equation
mu opioid receptor (MOR), sequence (P35372 whole entry): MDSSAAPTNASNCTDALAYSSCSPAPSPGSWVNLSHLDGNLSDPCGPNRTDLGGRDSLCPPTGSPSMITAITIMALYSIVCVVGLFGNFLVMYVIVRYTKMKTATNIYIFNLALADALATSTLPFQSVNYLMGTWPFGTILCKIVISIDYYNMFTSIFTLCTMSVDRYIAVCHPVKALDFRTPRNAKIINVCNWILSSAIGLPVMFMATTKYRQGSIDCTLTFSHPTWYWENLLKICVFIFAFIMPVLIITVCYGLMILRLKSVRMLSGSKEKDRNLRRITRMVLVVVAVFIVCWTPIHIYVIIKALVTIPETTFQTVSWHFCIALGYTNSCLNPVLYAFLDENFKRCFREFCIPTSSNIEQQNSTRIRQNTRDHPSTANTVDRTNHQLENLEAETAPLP
Procedure: as §1

delta opioid receptor (DOR), sequence (P41143 whole entry): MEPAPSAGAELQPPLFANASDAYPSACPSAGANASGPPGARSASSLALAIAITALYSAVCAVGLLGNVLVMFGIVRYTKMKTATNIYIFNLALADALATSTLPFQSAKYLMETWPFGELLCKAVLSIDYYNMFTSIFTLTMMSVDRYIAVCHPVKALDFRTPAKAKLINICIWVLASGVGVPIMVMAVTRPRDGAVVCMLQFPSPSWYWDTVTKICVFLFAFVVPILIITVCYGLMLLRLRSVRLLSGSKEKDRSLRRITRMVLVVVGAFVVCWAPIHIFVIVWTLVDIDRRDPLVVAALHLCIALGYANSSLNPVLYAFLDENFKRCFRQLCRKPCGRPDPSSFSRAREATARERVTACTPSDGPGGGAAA

Row | Structure (SMILES) | Kb [1] | Kb [2] | Kb [3]
1 | NC(=O)c1ccc(Oc2ccc3c(c2)CCC3NCCc2ccc(F)cc2)nc1 (stereo not drawn) [Example 90, 6-{1-[2-(4-Fluoro-phenyl)-ethylamino]-indan-5-yloxy}-nicotinamide] | 14.6 nM | 9.2 nM | 0.4 nM
2 | NC(=O)c1ccc(Oc2cccc3c2CCCC3CNCCC2CCCCC2)nc1 (stereo not drawn) [Example 195, 6-{5-[(2-Cyclohexyl-ethylamino)-methyl]-5,6,7,8-tetrahydro-naphthalen-1-yloxy}-nicotinamide] | 7.9 nM | 76 nM | 0.5 nM
3 | CC(C)CCNCC1CCCc2c(Oc3ccc(C(N)=O)cn3)cccc21 (stereo not drawn) [Example 192, 6-{5-[(3-Methyl-butylamino)-methyl]-5,6,7,8-tetrahydro-naphthalen-1-yloxy}-nicotinamide] | 9.4 nM | 11.8 nM | 1.1 nM
4 | CC(C)CCN(C)C1CCc2cc(Oc3ccc(C(N)=O)cn3)ccc21 (stereo not drawn) [Example 20] | 13.5 nM | 2.5 nM | 0.73 nM
5 | CC(C)(C)CCNCC1CCCc2c(Oc3ccc(C(N)=O)cn3)cccc21 (stereo not drawn) [Example 202, 6-{5-[(3,3-Dimethyl-butylamino)-methyl]-5,6,7,8-tetrahydro-naphthalen-1-yloxy}-nicotinamide] | 4.09 nM | 5.79 nM | 0.65 nM
